pKi: −log10 of the molar value.
Legend:
[1] = biological target: Sigma non-opioid intracellular receptor 1 (Cavia porcellus, UniProt Q60492); assay: Displacement of (+)-[3H]pentazocine from sigma 1 receptor in guinea pig brain homogenate after 120 mins by beta counting; type: tissue-based
[2] = Displacement of [3H]-di-o-tolylguanidine from sigma 2 receptor in Sprague-Dawley rat liver membranes after 120 mins by beta counting in presence of (+)-pentazocine; type: cell membranes, Membrane
[3] = Selectivity ratio of Ki for sigma 1 receptor in guinea pig brain homogenate to Ki for sigma 2 receptor in Sprague-Dawley rat liver membranes; type: cell membranes

Sequence of Sigma non-opioid intracellular receptor 1 (Q60492 whole entry): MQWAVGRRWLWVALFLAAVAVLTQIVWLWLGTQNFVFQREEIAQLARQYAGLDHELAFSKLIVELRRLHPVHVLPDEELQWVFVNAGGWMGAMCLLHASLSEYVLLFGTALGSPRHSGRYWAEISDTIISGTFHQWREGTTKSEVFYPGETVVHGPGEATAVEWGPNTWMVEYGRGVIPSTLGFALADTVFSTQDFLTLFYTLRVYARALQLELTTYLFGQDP

Compound: COc1cc2c(cc1OC)CN(c1cc(-n3nc(C)c4c3CC(C)(C)CC4=O)ccc1C(N)=O)CC2
- pKi [1]: < 6.00
- pKi [2]: 4.74

Compound: COc1cc2c(cc1OC)CN(CCCCCCNc1cc(-n3nc(C)c4c3CC(C)(C)CC4=O)ccc1C(N)=O)CC2
- pKi [1]: < 6.00
- pKi [2]: 4.67

Compound: COc1cc2c(cc1OC)CN(CCCNc1cc(-n3nc(C)c4c3CC(C)(C)CC4=O)ccc1C(N)=O)CC2
- pKi [1]: < 6.00
- pKi [2]: 7.05
- Ratio Ki [3]: > 11

Compound: Cc1ccccc1NC(=N)Nc1ccccc1C [DITOLYLGUANIDINE]
- pKi [2]: 7.71

Compound: COc1cc2c(cc1OC)CN(CCCCCNc1cc(-n3nc(C)c4c3CC(C)(C)CC4=O)ccc1C(N)=O)CC2
- pKi [1]: < 6.00
- pKi [2]: 7.13
- Ratio Ki [3]: > 13

Compound: COc1cc2c(cc1OC)CN(CCCCNc1cc(-n3nc(C)c4c3CC(C)(C)CC4=O)ccc1C(N)=O)CC2
- pKi [1]: < 6.00
- pKi [2]: 6.85
- Ratio Ki [3]: > 7

Compound: COc1cc2c(cc1OC)CN(CCNc1cc(-n3nc(C)c4c3CC(C)(C)CC4=O)ccc1C(N)=O)CC2
- pKi [1]: < 6.00
- pKi [2]: 6.09

Compound: Cc1nn(-c2ccc(C(N)=O)c(NC3CC4CCCC(C3)N4)c2)c2c1C(=O)CC(C)(C)C2 (centres undefined)
- pKi [1]: < 6.00
- pKi [2]: 7.33
- Ratio Ki [3]: > 21

Source: ChEMBL document CHEMBL3400084, “Synthesis and evaluation of tetrahydroindazole derivatives as sigma-2 receptor ligands” (Bioorg Med Chem, 2015)
